In patent US10207023B2, “Antibacterial calcium-based materials” (NATIONAL CHENG KUNG UNIVERSITY, priority 2012, dated 2019):

Tests used:
[1] = system: staphylococcus aureus (SA); test: Disk diffusion assay (antibacterial zone); format: cell-based; conditions: for antibacterial behavior: commercially pure lithium compounds, dry- or wet-molded 3 mm high, 6 mm dia. cylinders; for anti-bacterial zones: wet-molded pure Li compound (0.6 M (NH4)2HPO4 setting solution, 1.4 MPa), 6 mm dia. cylinder
Method: (§1) To prepare a TSB medium, 6 g Tryptone (Neogen, USA), 2 g Soytone (Soytone BD, USA) and 2 g NaCl (J.T. Baker, USA) were placed into a beaker filled with 400 ml of double distilled water and mixed with a stir bar. After total dissolution, the pH of the solution was adjusted to 7.3 and the solution was autoclaved (121° C., 1.2 kg/cm^2) for 30 min.
as §1, with “TSA” for “TSB”, “USA),” for “USA) and”, “Baker, USA) and 6 g Agar (Neogen,” for “Baker,”, “min. After being sterilized, the TSA medium was poured into a petri dish and allowed hardened. The TSA medium was then placed into an incubator at 30° C.” for “min.”
1 ml staphylococcus aureus (SA) containing TSB medium was transferred into a 15 ml centrifuge tube, wherein 10 ml phosphate buffered saline (PBS) was added and mixed gently. The mixture was centrifuged (KUBOTA 5922, Japan) at 3000 rpm for 10 minutes. The supernatant was removed and a SA pellet remained. 1 ml PBS was then added to suspend the pellet. 20 μl of the SA suspension and 180 μl PBS were transferred into each well of a 96 well plate. The absorbance was assayed using an ELISA reader (Sunrise, Tecan, Switzerland) at 600 nm to determine the bacterial concentration (cfu/ml) (200 μl of PBS was used as a negative control). Once determined, an appropriate volume of SA containing medium was transferred into a 1 micro centrifuge tube, wherein TSB was added to adjust bacterial concentration to 3.5×10^6 (cfu/ml). The tube was shaked for 15 seconds to allow thorough mixing. 100 μl of the SA containing medium was removed and dropped evenly across the agar plate. Once the broth was distributed evenly on agar plate and became almost dry, samples to be tested were placed on top of the agar and the petri dish was covered with a parafilm. The dish was placed in an incubator (LM-570R, Yih Der, Taiwan) at 37° C. for 24 hours. Bacteria colony formation was then observed and colony diameters measured.
After being loaded, the samples were placed on a table for 1 hour to become dry. Four samples were then placed into a 20 ml glass vial, wherein 8 ml Hanks' solution was added with a solid/liquid ratio of 0.1 g/ml. The glass vial was put into a water bath at 37° C. for 1, 2, 3, 5, and 7 days. The Hanks' solution was changed daily. Once having been soaked for desired periods of time, the samples were placed into a 50° C. oven for 24 hours, then stored in a zip lock bag.

S. aureus = test: Antimicrobial activity measurement (CFU count in TSB); format: cell-based
Method: Appropriate amount of UV-sterilized sample (either granule or cement) to be tested was put in a 12-well plate, wherein was added 1 ml Tryptone Soya Broth (TSB) with 10^6 live S. aureusbacteria in each well (concentration: 10^6 colony-forming units (CFU) per ml). S. aureusbacteria were cultured with the sample anaerobically at 37° C. One cultured without sample was considered as a positive control in each study group. The viability of the bacterial suspensions incubated with different samples was assessed using Tryptone Soya Agar (TSA) solid agar plates. After cultivation for 24 h, broth of each well was sequentially diluted and plated. The growth of bacteria was evaluated after cultivation on agar plates at 37° C. for 24 h. Then colony-forming units (CFU) were counted to calculate concentration using the equation,
[formula] and the antimicrobial activity is obtained by the following equation: Antimicrobial activity={[(Conc. of control group)−(conc. of experiment)]/(Conc. of control group)}×100%
Appropriate amounts of UV-sterilized Li3PO4 or Li2CO3 salt were each mixed with 1 ml TSB and tested for their antimicrobial activity values using the aforementioned method.
Appropriate amounts of “65/35” powder were mixed with appropriate amounts of Li3PO4 or Li2CO3 salt to form TTCP/DCPA/CSH/Li salt mixed powder with different Li salt ratios. The mixed powder was mixed with 0.6 M (NH4)2HPO4 solution to form a cement paste. Prior to being fully hardened, the paste was placed in a stainless steel mold under a pressure of 450 Kgf to squeeze a portion of the liquid out of the paste. After being hardened and removed from the mold, the hardened block was crushed and sieved into granules with a particle size range of about 0.4-1.2 mm. 0.2 g UV-sterilized thus-obtained granular sample was mixed with 1 ml TSB and tested for its antimicrobial activity using the aforementioned method.

SMILES	antibacterial behavior [1]	anti-bacterial zones [1]	Antimicrobial activity (24 h) (S. aureus; Li salt amount/TSB 0.06 g/ml)	Antimicrobial activity (24 h) (S. aureus; Li salt amount/TSB 0.08 g/ml)	Antimicrobial activity (24 h) (S. aureus; Li salt amount/TSB 0.10 g/ml)	Antimicrobial activity (24 h) (S. aureus; Li salt amount/TSB 0.12 g/ml)	Antimicrobial activity (24 h) (S. aureus; Li salt amount/TSB 0.14 g/ml)	24 h antimicrobial activity value (S. aureus; all Li2CO3 salt samples (0.06-0.14 g/ml TSB))	24 h antimicrobial activity values (S. aureus; 0.06-0.12 g Li3PO4 salt in 1 ml TSB)
O=C([O-])[O-].[Li+].[Li+] [Li2CO3, Lithium carbonate]	high antibacterial behavior	18 mm	100%	100%	100%	100%	100%	100%	–
[F-].[Li+] [LiF, Lithium fluoride]	high antibacterial behavior	–	–	–	–	–	–	–	–
[Li+].[Li+].[O-2] [Li2O, Lithium oxide]	high antibacterial behavior	–	–	–	–	–	–	–	–
O=S(=O)([O-])[O-].[Li+].[Li+] [Li2SO4, Lithium sulfate]	high antibacterial behavior	22 mm	–	–	–	–	–	–	–
O=P([O-])([O-])[O-].[Li+].[Li+].[Li+] [Li3PO4, Lithium phosphate]	high antibacterial behavior	–	98.9%	98.9%	97.4%	98.8%	99.8%	–	97.4-98.9%
